Reference: US5480893A, “Inhibitors of farnesyl protein transferase” (Merck & Co., Inc., priority 1994, dated 1996)
pIC50: −log10 of the molar value.

Columns and labels:
[1] = target: T1, Farnesyl-protein transferase (FTase) from bovine brain (Bos taurus, UniProt P29702+P49355); assay: In vitro inhibition of Ras Farnesyl Transferase; type: biochemical; conditions: Ras-CVLS 3.5 μM, [3H]FPP 0.25 μM, partially purified bovine brain FTase; read-out: IC50 (concentration of compound which gives 50% inhibition of FTase)
T1 construct: Farnesyl-protein transferase (FTase) from bovine brain; from tissue; host or cells: bovine brain, partially purified (DEAE-Sephacel, N-octyl agarose, Mono Q HPLC)
Procedure: In vitro inhibition of Ras Farnesyl Transferase […] Ras-CVLS at 3.5 μ[…], and the indicated compounds were incubated with this partially purified enzyme preparation. The FTase data presented below is a measurement of the ability of the test compound to inhibit Ras farnesylation in vitro. | *(IC50 is the concentration of compound which gives 50% inhibition o | FTase under the described assay conditions)

[2] = system: Ras farnesylation in the v-ras cell line (Ha-ras p21); assay: In vivo ras farnesylation assay (v-ras cell line); type: cell-based
Procedure: In vivo ras farnesylation assay
The cell line used in this assay was the v-ras line, which expressed vital Ha-ras p21. The assay was performed essentially as described in DeClue, J. E. et. al., Cancer Reasearch 51, 712-717, (1991). Cells in 10 cm dishes at 50-75% confluency were treated with the test compound (final concentration of solvent, methanol or dimethyl sulfoxide, was 0.1%). After 4 hours at 37° C., the cells were labelled in 3 ml methionine-free DMEM supplemeted with 10% regular DMEM, 2% fetal bovine serum and 400 μCi[^35 S] methionine (1000 Ci/mmol). After an additional 20 hours, the cells were lysed in 1 ml lysis buffer (1% NP40/20 nnM HEPES, pH 7.5/5 mM MgCl2 /1 mM DTT/10 μg/ml aprotinen/2 μg/ml leupeptin/2 μg/ml antipain/0.5 mM PMSF) and the lysates cleared by centrifugation at 100,000×g for 45 min. Aliqouts of lysates containing equal numbers of acid-precipitable counts were brought to 1 ml with IP buffer (lysis buffer lacking DTT) and immunoprecipitated with the ras-specific monoclonal antibody Y13-259 (Furth, M. E. et al., J. Virol. 43, 294-304, (1982)). Following a 2 hour antibody incubation at 4° C., 200 μl of a 25% suspension of protein A-Sepharose coated with rabbit anti rat IgG was added for 45 min. […]

Ras farnesylation = conditions: literature; cited from earlier work

Row | Structure (SMILES) | pIC50 [1] | Inhibition of Ras farnesylation in vivo (Ras farnesylation) | also measured
1 | CC[C@H](C)[C@H](NC[C@@H](N)CS)C(=O)N[C@H](C(=O)N[C@H]1CCCOC1=O)[C@@H](C)CC [N-[N'-(2(R)-amino-3-mercaptopropyl)isoleucyl-isoleucyl]-3(S)-aminotetrahydropyran-2-one] | 6.33 | – | –
2 | CC[C@H](C)[C@H](NC[C@@H](NC[C@@H](N)CS)[C@@H](C)CC)C(=O)N[C@H]1CCOC1=O [N-[2(S)-(2(R)-amino-3-mercaptopropylamino)-3(S)-methylpentyl]isoleucyl-homoserine lactone] | 6.02 | – | inhibition at 100 µM ([2]; at 100 μM test concentration, 4 hours then additional 20 hours with [35S]methionine): 90%
3 | CC[C@H](C)[C@H](NC[C@@H](N)CS)C(=O)N[C@H](C(=O)N[C@@H](CCCO)C(=O)O)[C@@H](C)CC | 7.62 | – | –
4 | CC[C@H](C)[C@H](NC[C@@H](NC[C@@H](N)CS)[C@@H](C)CC)C(=O)N[C@@H](CCO)C(=O)O [N-[2(S)-(2(R)-amino-3-mercaptopropylamino)-3(S)-methylpentyl]isoleucyl-homoserine] | 7.92 | – | Inhibition of Ras farnesylation ([2]; result in words, test concentration not printed for this compound): No Inhibition
5 | CC[C@H](C)C(=O)O[C@H]1C[C@@H](C)C=C2C=C[C@H](C)[C@H](CC[C@@H]3C[C@@H](O)CC(=O)O3)[C@H]21 [lovastatin] | – | Inhibition of Ras farnesylation in vivo has been demonstrated | –
6 | CC[C@H](C)C(=O)O[C@H]1CCC=C2C=C[C@H](C)[C@H](CC[C@@H]3C[C@@H](O)CC(=O)O3)[C@H]21 [compactin] | – | Inhibition of Ras farnesylation in vivo has been demonstrated | –
